From patent US5500423A, “5,6-dihydro-4H-imidazo[4,5,1-ij]quinolines” (Hoechst-Roussel Pharmaceuticals Inc., priority 1994, dated 1996)
Structures can show the parent of a compound that is named as a salt. Where two headings read alike, the source gives them in different places.

Tested on: mice
Experiment: phenyl-p-quinone writhing assay in mice (analgesia)
Format: in vivo
Details: Mus musculus, sc, read-out: % Inhibition of Writhing; for inhibition in vivo at 20 mg/kg: 0.5 h
[1] = 20 mg/kg subcutaneous, 30 minutes before injection of phenylquinone, mice

SMILES	inhibition in vivo at 20 mg/kg [1] [%]	further results
CC(=O)N1CCC(c2nc3cccc4c3n2CCC4)CC1 [1-Acetyl-4-[5,6-dihydro-4H-imidazo[4,5,1-ij]quinolin-2-yl]piperidine]	51	–
c1cc2c3c(c1)nc(C1CCNCC1)n3CCC2 [2-(4-Piperidinyl)-5,6-dihydro-4H-imidazo[4,5,1-ij]quinoline fumarate]	–	inhibition in vivo at 20 mg/kg: 31%
Fc1ccc(C(CCCN2CCN(c3nc4cccc5c4n3CCC5)CC2)c2ccc(F)cc2)cc1 [4-[4,4-Bis(4-fluorophenyl)-butyl]-1-piperazinyl-5,6-dihydro-4H-imidazo[4,5,1-ij]quinoline]	43	–
c1cc2c3c(c1)nc(N1CCNCC1)n3CCC2 [5,6-Dihydro-2-(1-piperazinyl)-4H-imidazo[4,5,1-ij]quinoline dihydrochloride]	–	inhibition in vivo at 20 mg/kg: 57%
c1cc2c3c(c1)nc(N1CCCCC1)n3CCC2 [5,6-Dihydro-2-(1-piperidinyl)-4H-imidazo[4,5.1-ij]quinoline hydrochloride]	68	–
CN(C)C1CCN(c2nc3cccc4c3n2CCC4)CC1 [5,6-Dihydro-2-(4-dimethylamino-1-piperidinyl)-4H-imidazo[4,5,1-ij]quinolinefumarate]	48	–
c1ccc(CCN2CCN(c3nc4cccc5c4n3CCC5)CC2)cc1 [5,6-Dihydro-2-(4-phenylethyl-1-piperazinyl)-4H-imidazo[4,5,1-ij]quinoline]	45	–
c1cc2c3c(c1)nc(N1CCSCC1)n3CCC2 [5,6-Dihydro-2-(4-thiomorpholinyl)-4H-imidazo[4,5,1-ij]quinoline hydrochloride]	53	–
CCOC(=O)N1CCN(c2nc3cccc4c3n2CCC4)CC1 [Ethyl-4-[5,6-dihydro-4H-imidazo[4,5,1-ij]quinolin-2-yl]-1-piperazinecarboxylate fumarate]	47	–
CCC(=O)O[C@](Cc1ccccc1)(c1ccccc1)[C@H](C)CN(C)C [propoxyphene, reference compound]	–	inhibition in vivo at 5 mg/kg: 19%
